Source: BigSolDB 2.1

Clc1ccccc1C(c1ccccc1)(c1ccccc1)n1ccnc1
solubility (mole fraction)
Settings	293.2 K	298.2 K	303.2 K	308.2 K	313.2 K
in ethanol	0.0154	0.0167	0.0216	0.025	0.0312
in water	2.42e-08	2.92e-08	3.38e-08	3.77e-08	4.15e-08
